Here are results for 7 compounds from US20230286973A1, “PROTEIN SECRETION INHIBITORS” (KEZAR LIFE SCIENCES, priority 2020, published 2023).

Data set [1] concerns HER3-ss+4aa/Gaussia Luciferase. Briefly: Dox-Induced Her3-ss-Gluc Assay. The class given is cell-based. Conditions: 24 hr Dox induction, 293FRT/TO cells, read-out: 24 hr Dox Inducible Her3(ss + 4)Gluc 293FRT/TO: Mean IC50. Put shortly:
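Reporter line: Flp-In 293 T-REx, T-REx-regulated HER3-ss+4aa fused to Gaussia luciferase. Compound co-added with doxycycline after overnight plating, 37° C., 5% CO2.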

Data set [2] relates to TNFα-FL/Gaussia Luciferase. In words: Dox Induced TNFα-FL-Gluc Assay. The class given is cell-based. The following applies: for IC50: 24 hr Dox induction, 293FRT/TO cells, read-out: 24 hr Dox Inducible TNFaFLGluc 293FRT/TO: Mean IC50; for 24 hr Dox Inducible TNFaFLGluc 293FRT/TO: TNF/PD1: ratio of TNFaFLGluc IC50 to PD1ssGluc IC50. Summed up:
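Doxycycline-inducible Gaussia luciferase-tagged full-length TNFα (1-233) was expressed in stable Flp-In 293 T-REx cells. Compounds were co-added with doxycycline and incubated at 37 °C, 5% CO2.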

Data set [3] can be described thus: Liver Microsome Stability Assay (mouse). Conditions: mouse liver microsomes, with NADPH, 1.0 uM compound.
Experimental: (§1) Stability of a compound was assessed in the presence of liver microsomes from various sources—mouse, rat, monkey and human liver microsomes. 1.0 uM compound, 0.4% DMSO in 0.1 M Potassium Phosphate with 1.0 mg/mL liver microsomes, were incubated at 37° C. with or without 1 mM NADPH. The samples were quenched at 0, and 30 minutes.
Data set [4] in a line: Liver Microsome Stability Assay (human). The following applies: human liver microsomes, with NADPH, 1.0 uM compound.
Experimental: as §1
In data set [5] the test system is PD1-ss+10aa/Gaussia Luciferase. Briefly: Dox-Induced PD1-ss-Gluc Assay. Conditions: 24 hr Dox induction, 293FRT/TO cells, read-out: 24 hr Dox Inducible PD1ssGluc 293FRT/TO: Mean IC50. Format: cell-based. Summed up: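 Compounds were added in DMSO/media with doxycycline and incubated at 37 °C, 5% CO2, on 293 T-REx cells plated one day earlier. These cells stably express, under tetracycline-regulated control, a Gaussia luciferase fused to the PD1 signal peptide plus 10 residues. Structures drawn without stereochemistry were tested as stereoisomer mixtures.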

Data set [6] deals with multiple myeloma cell line U266B1. Briefly: U266 Cell Viability Assay. The class given is cell-based, human. Conditions: Homo sapiens, U-266, 48 h, U266B1 cells, Celltiter-Glo. Summed up: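 Viability is measured as luciferase signal from CellTiter-Glo following a 48-hour incubation with compound at 37° C. under 5% CO2. Where structures lack drawn stereochemistry, values refer to stereoisomer mixtures.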

The subject of data set [7] is IL-2-FL/Gaussia Luciferase. In words: Dox Induced IL2-FL-Gluc Assay. Conditions: for IC50: 24 hr Dox induction, 293FRT/TO cells, read-out: 24 hr Dox Inducible IL2FLGluc 293FRT/TO: Mean IC50; for 24 hr Dox Inducible IL2FLGluc 293FRT/TO: IL2/PD1: ratio of IL2FLGluc IC50 to PD1ssGluc IC50. The class given is cell-based. Put shortly:
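Doxycycline induces an IL-2(1-153)–Gaussia luciferase fusion in a stable Flp-In 293 T-REx line. Compound exposure runs alongside induction at 37° C.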

A short description of data set [8]: Liver Microsome Stability Assay (monkey). The following applies: monkey liver microsomes, with NADPH, 1.0 uM compound.
Experimental: as §1
The nature of data set [9]: Liver Microsome Stability Assay (rat). Conditions: rat liver microsomes, with NADPH, 1.0 uM compound.
Experimental: as §1
In data set [10] the test system is multiple myeloma cell line NCI-H929. In words: H929 Cell Viability Assay. Format: cell-based, human. The following applies: Homo sapiens, NCI-H929, 48 h, NCI-H929 cells, Celltiter-Glo. Put shortly:
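Viability is scored by CellTiter-Glo luminescence following a 48-hour treatment at 37° C. Data for structures shown without stereochemistry refer to stereoisomer mixtures.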

Where [11] appears, read: '<=>' given where both are I.A.

Where two headings read alike, the source gives them in different places.

In the case of `CN(C)C(=O)N1CCC(Oc2ccc(N3CCC[C@@H]3c3csc(NC(=O)c4cccn4Cc4ccnc(F)c4)n3)cc2)CC1` [Compound A137, (R)-4-(4-(2-(2-(1-((2-fluoropyridin-4-yl)methyl)-1H-pyrrole-2-carboxamido)thiazol-4-yl)pyrrolidin-1-yl)phenoxy)-N,N-dimethylpiperidine-1-carboxamide], the IC50 in data set [1] worked out at 51.5 nM; in data set [2], 566 nM; in [5] it was 32.2 nM; in data set [7], 61.4 nM. For the same compound, the “24 hr Dox Inducible TNFaFLGluc 293FRT/TO: TNF/PD1” value in data set [2] stood at 17.6. Moreover, the “Liver Microsome Stability (Multiple Species): Mouse - % Remaining after 30 min w/NADPH” value in data set [3] is recorded as 1.78%. Moreover, the “Liver Microsome Stability (Multiple Species): Human - % Remaining after 30 min w/NADPH” value in [4] is listed as 4.35%. Besides, the EC50 in [6] is more than 25 µM; in [10], 948 nM. Besides, the “24 hr Dox Inducible IL2FLGluc 293FRT/TO: IL2/PD1” value in data set [7] stood at 1.9. The “Liver Microsome Stability (Multiple Species): Monkey - % Remaining after 30 min w/NADPH” value in data set [8] is listed as 2.57%. Further, in data set [9], the “Liver Microsome Stability (Multiple Species): Rat - % Remaining after 30 min w/NADPH” value came to 24.2%.
In the case of `CC(=O)N[C@H](C)c1ccc(N2CCC[C@@H]2c2csc(NC(=O)c3cccn3Cc3ccncc3)n2)cc1` [Compound A66, N-(4-((R)-1-(4-((R)-1-acetamidoethyl)phenyl)pyrrolidin-2-yl)thiazol-2-yl)-1-(pyridin-4-ylmethyl)-1H-pyrrole-2-carboxamide], the IC50 worked out at 59.7 nM in data set [1], 584 nM in data set [2], 27.2 nM in [5] and 69 nM in [7]. Also, the “24 hr Dox Inducible TNFaFLGluc 293FRT/TO: TNF/PD1” value in data set [2] is recorded as 21.5. Besides, in data set [3], the “Liver Microsome Stability (Multiple Species): Mouse - % Remaining after 30 min w/NADPH” value came out at 30%. Also, the “Liver Microsome Stability (Multiple Species): Human - % Remaining after 30 min w/NADPH” value in [4] was 2.98%. Moreover, the EC50 in data set [6] was more than 25 µM; in data set [10], 416 nM. In [7], the “24 hr Dox Inducible IL2FLGluc 293FRT/TO: IL2/PD1” value came to 2.5. The “Liver Microsome Stability (Multiple Species): Monkey - % Remaining after 30 min w/NADPH” value in data set [8] is given as 2.72%. Moreover, the “Liver Microsome Stability (Multiple Species): Rat - % Remaining after 30 min w/NADPH” value in data set [9] was found to be 5.19%.
As for `CCc1ccc(N2CCC[C@@H]2c2csc(NC(=O)c3cccn3CC3CCOCC3)n2)cc1` [Compound C110, (R)-N-(4-(1-(4-ethylphenyl)pyrrolidin-2-yl)thiazol-2-yl)-1-((tetrahydro-2H-pyran-4-yl)methyl)-1H-pyrrole-2-carboxamide], the IC50 in [1] (mean) stood at 46.4 nM; in data set [2] (mean) it was 302 nM; in [5] (mean) it was 31.4 nM; in [7] (mean) it was 94.9 nM. Also, the “24 hr Dox Inducible TNFaFLGluc 293FRT/TO: TNF/PD1” value in [2] (setting [11]) came out at 9.61. For the same compound, the “Liver Microsome Stability (Multiple Species): Mouse - % Remaining after 30 min w/NADPH” value in [3] stood at 74.3%. Besides, the “Liver Microsome Stability (Multiple Species): Human - % Remaining after 30 min w/NADPH” value in [4] turned out to be 61.3%. The EC50 in data set [6] is more than 25 µM; in data set [10], 1780 nM. In addition, the “24 hr Dox Inducible IL2FLGluc 293FRT/TO: IL2/PD1” value in [7] (setting [11]) stood at 3. For the same compound, the “Liver Microsome Stability (Multiple Species): Monkey - % Remaining after 30 min w/NADPH” value in data set [8] is 22.2%. Further, in data set [9], the “Liver Microsome Stability (Multiple Species): Rat - % Remaining after 30 min w/NADPH” value is recorded as 36%.
On to `Cc1coc(/C=C/c2csc(NC(=O)c3cccn3Cc3ccncc3)n2)n1` [Compound B41, (E)-N-(4-(2-(4-methyloxazol-2-yl)vinyl)thiazol-2-yl)-1-(pyridin-4-ylmethyl)-1H-pyrrole-2-carboxamide], for which the IC50 in data set [1] was 3630 nM; in [2], more than 25000 nM; in [5] it was 398 nM; in [7], more than 16600 nM. In data set [2], the “24 hr Dox Inducible TNFaFLGluc 293FRT/TO: TNF/PD1” value is more than 62.8. Further, in [3], the “Liver Microsome Stability (Multiple Species): Mouse - % Remaining after 30 min w/NADPH” value was determined as 0.36%. Moreover, in data set [4], the “Liver Microsome Stability (Multiple Species): Human - % Remaining after 30 min w/NADPH” value is 0.18%. Also, the EC50 in data set [6] is more than 25 µM; in data set [10] it was more than 25000 nM. Also, the “24 hr Dox Inducible IL2FLGluc 293FRT/TO: IL2/PD1” value in data set [7] is given as more than 42. Besides, the “Liver Microsome Stability (Multiple Species): Monkey - % Remaining after 30 min w/NADPH” value in data set [8] is 0.44%. In addition, the “Liver Microsome Stability (Multiple Species): Rat - % Remaining after 30 min w/NADPH” value in [9] is 0.15%.
Regarding `O=C(Nc1nc(/C=C/c2cn(-c3ccccc3)cn2)cs1)c1cccn1Cc1ccnc(F)c1` [Compound B104, (E)-1-((2-fluoropyridin-4-yl)methyl)-N-(4-(2-(1-phenyl-1H-imidazol-4-yl)vinyl)thiazol-2-yl)-1H-pyrrole-2-carboxamide], the IC50 in data set [1] was determined as 785 nM; in [2], 4990 nM; in [5] it was 6.16 nM; in data set [7], 1280 nM. Besides, the “24 hr Dox Inducible TNFaFLGluc 293FRT/TO: TNF/PD1” value in data set [2] was determined as 809. In data set [3], the “Liver Microsome Stability (Multiple Species): Mouse - % Remaining after 30 min w/NADPH” value came to 4.41%. Besides, the “Liver Microsome Stability (Multiple Species): Human - % Remaining after 30 min w/NADPH” value in [4] is on record as 0.21%. In addition, the EC50 is more than 25 µM in data set [6] and more than 25000 nM in data set [10]. Also, the “24 hr Dox Inducible IL2FLGluc 293FRT/TO: IL2/PD1” value in [7] was found to be 210. In addition, the “Liver Microsome Stability (Multiple Species): Monkey - % Remaining after 30 min w/NADPH” value in data set [8] is recorded as 0.14%. In addition, the “Liver Microsome Stability (Multiple Species): Rat - % Remaining after 30 min w/NADPH” value in data set [9] is 2.24%.
As to `O=C(Nc1nc([C@H]2CCCN2c2ccccc2)cs1)c1cccn1CC1CCOC1` (stereo partly drawn) [Compound C56, N-(4-((R)-1-phenylpyrrolidin-2-yl)thiazol-2-yl)-1-((tetrahydrofuran-3-yl)methyl)-1H-pyrrole-2-carboxamide], the IC50 in data set [1] (mean) came to 3270 nM; in data set [2] (mean), 19200 nM; in data set [5] (mean), 1750 nM; in data set [7] (mean), 4670 nM. Further, in data set [2] (setting [11]), the “24 hr Dox Inducible TNFaFLGluc 293FRT/TO: TNF/PD1” value worked out at 11. The “Liver Microsome Stability (Multiple Species): Mouse - % Remaining after 30 min w/NADPH” value in [3] turned out to be 21%. In addition, the “Liver Microsome Stability (Multiple Species): Human - % Remaining after 30 min w/NADPH” value in data set [4] came out at 24.4%. Further, the results for the EC50 in data set [6] and in [10] were more than 25 µM and more than 25000 nM, respectively. Moreover, the “24 hr Dox Inducible IL2FLGluc 293FRT/TO: IL2/PD1” value in data set [7] (setting [11]) was 2.7. Also, the “Liver Microsome Stability (Multiple Species): Monkey - % Remaining after 30 min w/NADPH” value in data set [8] was found to be 2.02%. In addition, the “Liver Microsome Stability (Multiple Species): Rat - % Remaining after 30 min w/NADPH” value in [9] was 10.9%.
Regarding `O=C(Nc1nc(-c2cccc(-c3ccccn3)c2)cs1)c1cccn1Cc1ccnc(F)c1` [Compound A162, 1-((2-fluoropyridin-4-yl)methyl)-N-(4-(3-(pyridin-2-yl)phenyl)thiazol-2-yl)-1H-pyrrole-2-carboxamide], the IC50 is 1270 nM in data set [1], more than 25000 nM in [2], 758 nM in [5] and 1770 nM in [7]. The “24 hr Dox Inducible TNFaFLGluc 293FRT/TO: TNF/PD1” value in data set [2] is given as more than 33.0. For the same compound, the “Liver Microsome Stability (Multiple Species): Mouse - % Remaining after 30 min w/NADPH” value in [3] was 7.13%. The “Liver Microsome Stability (Multiple Species): Human - % Remaining after 30 min w/NADPH” value in data set [4] was 1.91%. For the same compound, the EC50 was more than 25 µM in data set [6] and more than 25000 nM in data set [10]. The “24 hr Dox Inducible IL2FLGluc 293FRT/TO: IL2/PD1” value in data set [7] stood at 2.4. Moreover, the “Liver Microsome Stability (Multiple Species): Monkey - % Remaining after 30 min w/NADPH” value in data set [8] is recorded as 0.25%. For the same compound, in [9], the “Liver Microsome Stability (Multiple Species): Rat - % Remaining after 30 min w/NADPH” value is 8.48%.
